According to patent US20230099858A1, “PYRIDOPYRIMIDINE DERIVATIVES AS KRAS INHIBITORS” (BETA PHARMA, INC., priority 2020, published 2023):
pIC50: −log10 of the molar value. Where a name gives a salt, the structure may show the parent alone. Read-outs that look alike come from different tables or passages of the source.

Molecular target: T1, KRAS G12C (Homo sapiens, UniProt P01116, G12C)
T1 construct: aa 2-169, expressed in E. coli; His-tag (TEV cleavable) (N); purchased Reaction Biology Corporation (RBC); host or cells: E. coli
T1 sequence (P01116 2-169 G12C): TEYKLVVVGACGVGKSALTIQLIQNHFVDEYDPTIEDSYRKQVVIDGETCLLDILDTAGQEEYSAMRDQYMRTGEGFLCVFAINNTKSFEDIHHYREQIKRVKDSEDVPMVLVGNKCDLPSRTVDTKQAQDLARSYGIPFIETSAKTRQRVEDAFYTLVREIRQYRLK
Experiment: KRAS G12C/SOS1 Nucleotide Exchange Assay (SOS1-mediated Bodipy-GDP to GTP exchange)
Format: biochemical
Settings: for pIC50: substrate Bodipy-GDP/Kras G12C, 30 min pre-incubation at RT
Procedure: Reaction Buffer: 40 mM HEPES 7.4, 10 mM MgCl2, 1 mM DTT 0.002% Triton X100, 0.1% DMSO (final).
In addition, the final assay volume was 15 μL.
Reaction Procedure: • 1. Deliver 10 uL of 1.5× KRAS solution in freshly prepared reaction buffer to reaction wells. • 2. Deliver compounds in 100% DMSO into buffer using acoustic technology (Echo550; nanoliter range). • 3. Incubate compounds with Kras for 30 minutes at room temperature. • 4. Prepare 3× (SOS1+GTP) solution in reaction buffer. • 5. Deliver 5 μL of SOS1+GTP solution into reactions wells (deliver GTP only to column 1 for no SOS1 control). • 6.
Data Analysis: The fluorescence data was normalized using the equation below and fitted to “one phase exponential decay” equation using GraphPad prism software. The plateau was fixed to zero (use for non-covalent inhibitors) and rate ×1000 was used to calculate the IC50 values. Alternatively, the plateau was unconstrained (for covalent inhibitors) and the span value was used to calculate the IC50 values.
where Yraw is defined as fluorescence at time t, Ao is the average initial fluorescence with no SOS1, and M is the minimum fluorescence at the end of the reaction at the maximum SOS1.
The background subtracted signals (no SOS1 protein wells were used as background) were converted to % activity relative to DMSO controls. Data was analyzed using GraphPad Prism 4 with “sigmoidal dose-response (variable slope)”; 4 parameters with Hill Slope. The constraints were bottom (constant equal to 0) and top (must be less than 1).

[1] = plateau fixed to zero, rate x1000 used, read-out: IC50, Analysis Method: Rate Constant, KRAS G12C

inhibition at 10 µM (span analysis, no curve fit, highest concentration tested 10 μM, read-out: inhibition, printed in place of an IC50, Analysis Method: Span, KRAS G12C) [%] | pIC50 [1] | pIC50 (plateau unconstrained, span value used (for covalent inhibitors), read-out: IC50, Analysis Method: Span, KRAS G12C) | SMILES
< 65 | 7.24 | – | C=CC(=O)N1CCN(c2nc(OCC3CCCN3C)nc3nc(-c4cccc5cccc(Cl)c45)ccc23)C[C@H]1C (stereo partly drawn) [Example 1, 1-[(2R)-4-[7-(8-Chloronaphthalen-1-yl)-2-[(1-methylpyrrolidin-2-yl)methoxy]pyrido[2,3-d]pyrimidin-4-yl]-2-methylpiperazin-1-yl]prop-2-en-1-one]
– | 8.10 | 7.60 | C=CC(=O)N1CCN(c2nc(OC[C@@H]3CCCN3C)nc3nc(-c4cccc5cccc(Cl)c45)ccc23)C[C@@H]1CC#N [Example 2, 2-((S)-1-Acryloyl-4-(7-(8-chloronaphthalen-1-yl)-2-(((S)-1-methylpyrrolidin-2-yl)methoxy)pyrido[2,3-d]pyrimidin-4-yl)piperazin-2-yl)acetonitrile trifluoroacetate (1:1)]
